Key:
rat [1] = conditions: Subchronic oral toxicity in rodents, other, Feed, dose end: 13 week, group: systemic
mouse [2] = conditions: Subchronic dermal toxicity, cd1, Topical, dose end: 49 day, group: systemic
rat [3] = conditions: Subchronic oral toxicity in rodents, sprague dawley, Gavage/Intubation, dose end: 13 week, group: systemic
rat [4] = conditions: Prenatal developmental toxicity study, sprague dawley, Dermal, Topical, dose end: 15 GD, group: maternal
mouse [5] = conditions: Subchronic oral toxicity in rodents, b6c3f1, Water, dose end: 13 week
rat [6] = conditions: Subchronic oral toxicity in rodents, fischer, Water, dose end: 14 week, group: systemic
mouse [7] = conditions: Combined chronic toxicity/carcinogenicity; b6c3f1; Oral; Water; dose end: 105 week; group: systemic; systemic / in life observation / body weight / body weight
rat [8] = conditions: Sub-acute repeat dose toxicity, fischer, Oral, Water, dose end: 14 day, group: systemic
rat [9] = conditions: Prenatal developmental toxicity study, sprague dawley, Oral, Gavage/Intubation, dose end: 15 GD
rat [10] = conditions: Combined chronic toxicity/carcinogenicity, fischer, Oral, Water, dose end: 105 week, group: systemic
mouse [11] = conditions: Sub-acute repeat dose toxicity, b6c3f1, Oral, Water, dose end: 14 day, group: systemic
rat [12] = conditions: Sub-acute repeat dose toxicity, sprague dawley, Oral, Gavage/Intubation, dose end: 28 day, group: systemic
rat [13] = conditions: Multigenerational reproductive toxicity study, sprague dawley, Oral, Feed, dose end: 2 generation
mouse [14] = conditions: Subchronic oral toxicity in rodents, Feed, dose end: 28 day, group: systemic
rat [15] = conditions: Combined chronic toxicity/carcinogenicity; sprague dawley; Oral; Feed; dose end: 104 week; group: systemic; systemic / pathology microscopic / lung / foam cell aggregation + systemic / hematology / erythrocyte (rbc) count differential / erythrocyte…
rabbit = conditions: Prenatal developmental toxicity study, new zealand white, Oral, Gavage/Intubation, dose end: 18 GD, group: maternal
mouse [16] = conditions: Subchronic oral toxicity in rodents, cd1, Feed, dose end: 13 week, group: systemic, systemic / clinical chemistry / alkaline phosphatase (alp/alk) / alkaline phosphatase (alp/alk) + systemic / pathology microscopic / liver…
[17] = systemic / hematology / erythrocyte (rbc) count differential / erythrocyte (rbc) + systemic / in life observation / body weight / body …
[18] = systemic / urinalysis / ketones / ketones
[19] = systemic / in life observation / clinical signs / erythema + systemic / pathology microscopic / skin / edema
[20] = systemic / in life observation / clinical signs / erythema + systemic / pathology microscopic / skin / edema + systemic / in life …
[21] = systemic / organ weight / kidney / relative to body weight + systemic / organ weight / liver / absolute + systemic / organ weight / liver / …
[22] = systemic / in life observation / body weight / body weight + systemic / in life observation / clinical signs / [other] + systemic / in life …
[23] = systemic / in life observation / body weight / body weight + systemic / in life observation / clinical signs / red or crusty deposits around…
[24] = group: maternal, reproductive / reproductive performance / estrous cycle / length
[25] = group: systemic, systemic / in life observation / clinical signs / dehydration + systemic / in life observation / clinical signs / feces, discoloration + …
[26] = group: systemic, systemic / in life observation / water consumption / water consumption
[27] = systemic / clinical chemistry / bile acids / bile acids + systemic / in life observation / body weight / body weight + systemic / in life …
[28] = systemic / in life observation / body weight / body weight + systemic / in life observation / body weight / body weight gain + systemic / …
[29] = group: developmental, systemic / in life observation / body weight / fetal weight
[30] = group: maternal, systemic / in life observation / clinical signs / ataxia + systemic / in life observation / clinical signs / lethargy + systemic / in life …
[31] = systemic / pathology microscopic / kidney / hyperplasia + systemic / pathology microscopic / kidney / nephropathy + systemic / in life …
[32] = systemic / in life observation / body weight / body weight gain + systemic / organ weight / liver / absolute + systemic / organ weight / …
[33] = systemic / clinical chemistry / phosphorus / phosphorus + systemic / clinical chemistry / bilirubin / total bilirubin + systemic / pathology…
[34] = systemic / pathology gross / uterus / fluid contents
[35] = group: maternal, systemic / in life observation / body weight / body weight gain
[36] = group: offspring, developmental / offspring survival late / viability index / viability index + systemic / in life observation / body weight / offspring (pup…
[37] = group: offspring, systemic / in life observation / body weight / offspring (pup) weight
[38] = group: parental, systemic / in life observation / body weight / body weight + systemic / in life observation / body weight / body weight gain
[39] = group: parental, systemic / in life observation / body weight / body weight gain
[40] = systemic / pathology microscopic / liver / infiltration cellular
[41] = reproductive / offspring survival early / live fetuses / live fetuses

CC(=O)CCc1ccc(O)cc1 [4-(4-Hydroxyphenyl)butan-2-one] gave an LOAEL (rat [1]; [17]) of over 678 mg/kg/day, an NOAEL (rat [1]; [17]) of at least 678 mg/kg/day and an LEL (rat [1]; [18]) of 65 mg/kg/day. It also gave an NEL (rat [1]; [18]) of under 65 mg/kg/day.
Cc1cc(O)cc(C)c1Cl [4-Chloro-3,5-dimethylphenol] gave an LOAEL (mouse [2]; [19]) of 213 mg/kg/day, an NOAEL (mouse [2]; [19]) of under 213 mg/kg/day and an LEL (mouse [2]; [20]) of 213 mg/kg/day. For the same molecule, the NEL (mouse [2]; [20]) was under 213 mg/kg/day, the LEL (rat [3]; systemic / in life observation / body weight / body weight gain + systemic / in life observation / clinical signs / salivation + systemic / …) was 1250 mg/kg/day and the NEL (rat [3]; systemic / in life observation / clinical signs / salivation) was 25 mg/kg/day. It also gave an LOAEL (rat [3]; [21]) of 2500 mg/kg/day and an NOAEL (rat [3]; [21]) of 1250 mg/kg/day.
For c1ccc2c(c1)Oc1ccccc1[As]2O[As]1c2ccccc2Oc2ccccc21 [10,10'-Oxybisphenoxarsine], the LOAEL (rat [4]; [22]) was over 30 mg/kg/day, the NOAEL (rat [4]; [22]) was at least 30 mg/kg/day and the LEL (rat [4]; [23]) was 0.3 mg/kg/day. The NEL (rat [4]; [23]) was under 0.3 mg/kg/day.
CC(CO)OC(C)CO.CC(O)COCC(C)O (centres undefined) [Dipropylene glycol] showed an LEL (mouse [5]; [24]) of 14700 mg/kg/day, an LOAEL (mouse [5]; [24]) of over 14700 mg/kg/day and an NEL (mouse [5]; [24]) of 7430 mg/kg/day. For the same molecule, the NOAEL (mouse [5]; [24]) was at least 14700 mg/kg/day, the LOAEL (mouse [5]; [25]) was over 11000 mg/kg/day and the NOAEL (mouse [5]; [25]) was at least 11000 mg/kg/day. It also gave an LEL (mouse [5]; [26]) of 715 mg/kg/day, an NEL (mouse [5]; [26]) of under 715 mg/kg/day and an LEL (rat [6]; [27]) of 425 mg/kg/day. For the same molecule, the NEL (rat [6]; [27]) was under 425 mg/kg/day, the LOAEL (rat [6]; [28]) was 8950 mg/kg/day and the NOAEL (rat [6]; [28]) was 3340 mg/kg/day. For the same molecule, the LEL (mouse [7]) was 1950 mg/kg/day, the LOAEL (mouse [7]) was 1950 mg/kg/day and the NEL (mouse [7]) was 1040 mg/kg/day. It also gave an NOAEL (mouse [7]) of 1040 mg/kg/day, an LOAEL (rat [8]; systemic / in life observation / body weight / body weight + systemic / in life observation / body weight / body weight gain) of 11100 mg/kg/day and an NOAEL (rat [8]; systemic / in life observation / body weight / body weight + systemic / in life observation / body weight / body weight gain + systemic / in…) of 5420 mg/kg/day. The LEL (rat [8]; systemic / organ weight / liver / absolute + systemic / organ weight / liver / relative to body weight) was 2650 mg/kg/day, the NEL (rat [8]; systemic / organ weight / liver / absolute + systemic / organ weight / liver / relative to body weight + systemic / in life observation / …) was 1450 mg/kg/day and the LEL (rat [9]; [29]) was 5000 mg/kg/day. The LOAEL (rat [9]; [29]) was over 5000 mg/kg/day, the NEL (rat [9]; [29]) was 2000 mg/kg/day and the NOAEL (rat [9]; [29]) was at least 5000 mg/kg/day. For the same molecule, the LEL (rat [9]; [30]) was 2000 mg/kg/day, the LOAEL (rat [9]; [30]) was over 5000 mg/kg/day and the NEL (rat [9]; [30]) was 800 mg/kg/day. It also gave an NOAEL (rat [9]; [30]) of at least 5000 mg/kg/day, an LOAEL (rat [10]; systemic / pathology microscopic / kidney / hyperplasia + systemic / pathology microscopic / kidney / nephropathy) of 470 mg/kg/day and an NEL (rat [10]; [31]) of 115 mg/kg/day. For the same molecule, the NOAEL (rat [10]; [31]) was 115 mg/kg/day, the LEL (rat [10]; systemic / pathology microscopic / kidney / hyperplasia + systemic / pathology microscopic / kidney / nephropathy + systemic / pathology …) was 470 mg/kg/day and the LOAEL (mouse [11]; systemic / in life observation / body weight / body weight gain) was 10700 mg/kg/day. For the same molecule, the LEL (mouse [11]; [32]) was 10700 mg/kg/day, the NOAEL (mouse [11]; [32]) was 5330 mg/kg/day and the NEL (mouse [11]; systemic / in life observation / clinical signs / abnormal gait + systemic / in life observation / clinical signs / emaciation + systemic / …) was 5330 mg/kg/day.
Molecule O=C([O-])CNCO.[Na+] [Glycine, N-(hydroxymethyl)-, monosodium salt] has an LOAEL (rat [12]; [33]) of 640 mg/kg/day, an NOAEL (rat [12]; [33]) of 160 mg/kg/day and an LEL (rat [12]; [34]) of 40 mg/kg/day. It also gave an NEL (rat [12]; [34]) of under 40 mg/kg/day.
With Oc1cc(Cl)ccc1Oc1ccc(Cl)cc1Cl [Triclosan] the LEL (rat [13]; [35]) was 150 mg/kg/day, the LOAEL (rat [13]; [35]) was over 150 mg/kg/day and the NEL (rat [13]; [35]) was 50 mg/kg/day. It also gave an NOAEL (rat [13]; [35]) of at least 150 mg/kg/day, an LOAEL (rat [13]; [36]) of 150 mg/kg/day and an NOAEL (rat [13]; [36]) of 50 mg/kg/day. The LEL (rat [13]; [37]) was 15 mg/kg/day, the NEL (rat [13]; [37]) was under 15 mg/kg/day and the LOAEL (rat [13]; [38]) was 150 mg/kg/day. For the same molecule, the NOAEL (rat [13]; [38]) was 50 mg/kg/day, the LEL (rat [13]; [39]) was 15 mg/kg/day and the NEL (rat [13]; [39]) was under 15 mg/kg/day. It also gave an LOAEL (mouse [14]; systemic / clinical chemistry / alkaline phosphatase (alp/alk) / alkaline phosphatase (alp/alk) + systemic / clinical chemistry / alanine …) of 136 mg/kg/day, an LEL (mouse [14]; [40]) of 6.48 mg/kg/day and an NEL (mouse [14]; [40]) of under 6.48 mg/kg/day. It also gave an NOAEL (mouse [14]; systemic / pathology microscopic / liver / infiltration cellular + systemic / clinical chemistry / alkaline phosphatase (alp/alk) / alkaline…) of 6.48 mg/kg/day, an LEL (rat [15]) of 15 mg/kg/day and an LOAEL (rat [15]) of 15 mg/kg/day. It also gave an NEL (rat [15]) of under 15 mg/kg/day, an NOAEL (rat [15]) of under 15 mg/kg/day and an LEL (rabbit; [41]) of 15 mg/kg/day. For the same molecule, the NEL (rabbit; [41]) was under 15 mg/kg/day, the LOAEL (rabbit; systemic / in life observation / body weight / body weight + systemic / in life observation / food consumption / food consumption) was 150 mg/kg/day and the NOAEL (rabbit; systemic / in life observation / body weight / body weight + systemic / in life observation / food consumption / food consumption + …) was 50 mg/kg/day. It also gave an LEL (mouse [16]) of 25 mg/kg/day, an LOAEL (mouse [16]) of 25 mg/kg/day and an NEL (mouse [16]) of under 25 mg/kg/day. The NOAEL (mouse [16]) was under 25 mg/kg/day.

Reference: EPA's ToxRefDB 2
